Values after ≈ are worked out from the molar mass of the structure shown. Values belong to the molecule of their own block, whether it stands above or below them.
What was measured:
Test in all cases: ≥ marks a high value that may be exact or a test limit, other limits are often not marked, values filed in µg/mL are converted to µM
[1] = system: Bacillus magaterium AB90008
[2] = system: Candida tropicalis AY91009
[3] = system: Enterobacter cloacae AB2010162
Enterococcus sp. S13 = system: Enterococcus sp. S13
[4] = system: Escherichia coli DH5alpha
[5] = system: Klebsiella oxytoca AB2010143
[6] = system: Micrococcus luteus AB2010179
Pseudomonas putida = system: Pseudomonas putida
[7] = system: Salmonella enterica AB2010185
[8] = system: Staphylococcus aureus 16472
[9] = system: Staphylococcus aureus AB94004
[10] = system: Acinetobacter baumannii Ab11
[11] = system: Acinetobacter baumannii CR17
[12] = system: Acinetobacter baumannii CR86
[13] = system: Acinetobacter baumannii ATCC 17978
[14] = system: Acinetobacter baumannii AYE
Bacillus subtilis = system: Bacillus subtilis
[15] = system: Candida glabrata NCPF 8018
Candida krusei NCPF 3876 = system: Candida krusei NCPF 3876
[16] = system: Candida parapsilosis NCPF 3209
[17] = system: Candida tropicalis NCPF 8760
[18] = system: Escherichia coli ATCC 25922
Escherichia coli LEC001 = system: Escherichia coli LEC001
[19] = system: Escherichia coli NCTC 12923
Klebsiella pneumoniae M6 = system: Klebsiella pneumoniae M6
[20] = system: Klebsiella pneumoniae NCTC 13368
[21] = system: Pseudomonas aeruginosa NCTC 13437
[22] = system: Pseudomonas aeruginosa PAO1
[23] = system: Staphylococcus aureus ATCC 25923
[24] = system: Staphylococcus aureus ATCC 9144
[25] = system: Staphylococcus aureus NCTC 13616
[26] = system: Staphylococcus aureus USA 300
Staphylococcus aureus = system: Staphylococcus aureus
[27] = system: Batrachochytrium dendrobatidis JEL-197
[28] = system: Candida albicans ATCC 90028
[29] = system: Escherichia coli ATCC 25726
[30] = system: Bacillus subtilis ATCC 6633
Candida albicans 01U = system: Candida albicans 01U
Candida albicans 38U = system: Candida albicans 38U
[31] = system: Candida parapsilosis ATCC 22019
[32] = system: Cryptococcus neoformans L26
[33] = system: Cryptococcus neoformans L30
[34] = system: Enterococcus faecalis ATCC 12953
[35] = system: Erwinia amylovora PMV 6076
[36] = system: Escherichia coli ATCC 8739
[37] = system: Klebsiella pneumoniae ATCC 13885
[38] = system: Proteus mirabilis ATCC 25933
[39] = system: Pseudomonas aeruginosa ATCC 15442
[40] = system: Pseudomonas syringae pv. actinidiae Psa3700.1.1
[41] = system: Pseudomonas syringae pv. syringae EPS 94
[42] = system: Salmonella enterica subsp. enterica serovar Typhimurium ATCC 14028
[43] = system: Staphylococcus aureus ATCC 29213
[44] = system: Streptococcus pyogenes ATCC 19615
[45] = system: Trichophyton mentagrophytes
Trichophyton rubrum = system: Trichophyton rubrum
[46] = system: Xanthomonas arboricola pv. pruni CFBP 5563
[47] = system: Xanthomonas campestris pv. Vesicatoria 2133-2
[48] = system: Xanthomonas fragariae Xf349-9A

MIC [1]: 6 µM (≈ 8.95 µg/mL)
MIC [2]: 17 µM (≈ 25.4 µg/mL)
MIC [3]: ≥ 87 µM
MIC (Enterococcus sp. S13): 4 µM (≈ 5.97 µg/mL)
MIC [4]: ≥ 36 µM
MIC [5]: ≥ 87 µM
MIC [6]: 8 µM (≈ 11.9 µg/mL)
MIC (Pseudomonas putida): ≥ 87 µM
MIC [7]: ≥ 84 µM
MIC [8]: 12 µM (≈ 17.9 µg/mL)
MIC [9]: 16 µM (≈ 23.9 µg/mL)
Structure (SMILES): CC[C@H](C)[C@H](NC(=O)CNC(=O)[C@H](CC(N)=O)NC(=O)[C@H](Cc1c[nH]c2ccccc12)NC(=O)[C@@H](NC(=O)[C@@H](NC(=O)[C@H](CO)NC(=O)[C@H](CC(C)C)NC(=O)[C@@H](N)Cc1ccccc1)[C@@H](C)O)[C@@H](C)CC)C(=O)N[C@@H](CCCCN)C(=O)N[C@@H](CO)C(=O)N[C@@H](CC(C)C)C(=O)N[C@@H](CC(C)C)C(=O)O [FLSTIWNGIKSLL]

MIC [10]: ≥ 42 µM
MIC [11]: 10.5 µM (≈ 16 µg/mL)
MIC [12]: 21 µM (≈ 31.9 µg/mL)
Structure (SMILES): CC[C@H](C)[C@H](NC(C)=O)C(=O)N[C@@H](CC(N)=O)C(=O)N[C@@H](CC(C)C)C(=O)N[C@@H](CCCCN)C(=O)N[C@@H](C)C(=O)N[C@@H](CC(C)C)C(=O)N[C@@H](C)C(=O)N[C@@H](C)C(=O)N[C@@H](CC(C)C)C(=O)N[C@@H](C)C(=O)N[C@@H](CCCCN)C(=O)N[C@@H](CCCCN)C(=O)N[C@H](C(=O)N[C@@H](CC(C)C)C(N)=O)[C@@H](C)CC [INLKALAALAKKIL]

MIC [13]: ≥ 121 µM
MIC [14]: ≥ 121 µM
MIC (Bacillus subtilis): 13.7 µM (≈ 14.4 µg/mL)
MIC [15]: ≥ 121 µM
MIC (Candida krusei NCPF 3876): ≥ 121 µM
MIC [16]: ≥ 121 µM
MIC [17]: ≥ 121 µM
MIC [18]: 22.4 µM (≈ 23.6 µg/mL)
MIC (Escherichia coli LEC001): ≥ 121 µM
MIC [19]: ≥ 121 µM
MIC (Klebsiella pneumoniae M6): ≥ 121 µM
MIC [20]: ≥ 121 µM
MIC [21]: ≥ 121 µM
MIC [22]: > 121 µM
MIC [23]: 8.25 µM (≈ 8.69 µg/mL)
MIC [24]: ≥ 121 µM
MIC [25]: ≥ 121 µM
MIC [26]: ≥ 121 µM
MIC (Staphylococcus aureus): 64.3 µM (≈ 67.7 µg/mL)
Structure (SMILES): CC[C@H](C)[C@H](NC(=O)[C@@H](N)CCCCN)C(=O)N[C@@H](C)C(=O)N[C@@H](CCCCN)C(=O)N[C@H](C(=O)N[C@@H](C)C(=O)N[C@@H](CC(C)C)C(=O)N[C@@H](CCCCN)C(=O)N[C@@H](C)C(=O)N[C@@H](CC(C)C)C(N)=O)C(C)C [KIAKVALKAL]

MIC [27]: 25 µM (≈ 41.2 µg/mL)
MIC [28]: ≥ 50 µM
MIC [29]: ≥ 100 µM
MIC [23]: 50 µM (≈ 82.5 µg/mL)
Structure (SMILES): CC[C@H](C)[C@H](NC(=O)[C@H](Cc1ccccc1)NC(=O)[C@H](CCCCN)NC(=O)[C@H](CCCCN)NC(=O)[C@H](C)NC(=O)[C@H](CC(C)C)NC(=O)[C@H](CC(N)=O)NC(=O)[C@@H](NC(=O)[C@H](CC(C)C)NC(=O)[C@@H](NC(=O)[C@H](CC(=O)O)NC(=O)[C@H](CC(C)C)NC(=O)[C@H](Cc1ccccc1)NC(=O)[C@@H](N)CC(N)=O)[C@@H](C)O)[C@@H](C)CC)C(N)=O [NFLDTLINLAKKFI]

MIC [30]: ≥ 36 µM
MIC (Candida albicans 01U): 18 µM (≈ 15.8 µg/mL)
MIC (Candida albicans 38U): 18 µM (≈ 15.8 µg/mL)
MIC [31]: ≥ 144 µM
MIC [32]: ≥ 144 µM
MIC [33]: ≥ 144 µM
MIC [34]: ≥ 36 µM
MIC [35]: ≥ 50 µM
MIC [36]: 18 µM (≈ 15.8 µg/mL)
MIC [37]: 9 µM (≈ 7.88 µg/mL)
MIC [38]: 18 µM (≈ 15.8 µg/mL)
MIC [39]: 9 µM (≈ 7.88 µg/mL)
MIC [40]: ≥ 50 µM
MIC [41]: ≥ 50 µM
MIC [42]: 18 µM (≈ 15.8 µg/mL)
MIC [43]: 18 µM (≈ 15.8 µg/mL)
MIC [44]: ≥ 36 µM
MIC [45]: 18 µM (≈ 15.8 µg/mL)
MIC (Trichophyton rubrum): 18 µM (≈ 15.8 µg/mL)
MIC [46]: ≥ 50 µM
MIC [47]: ≥ 50 µM
MIC [48]: ≥ 50 µM
Structure (SMILES): CSCC[C@H](NC(=O)CNC(=O)[C@H](CCC(N)=O)NC(=O)[C@H](C)NC(=O)[C@H](CCCN=C(N)N)NC(=O)CNC(=O)[C@H](C)NC(=O)[C@@H](NC(=O)[C@@H](N)CO)C(C)C)C(N)=O [SVAGRAQGM]

— DBAASP
